According to publication PMC4603705, “A bioinspired peptide scaffold with high antibiotic activity and low in vivo toxicity” (Scientific Reports, 2015):
Values after ≈ are worked out from the molar mass of the structure shown. Values joined by “and” are separate entries in the source; they are usually repeats but may differ in a detail not shown here. Equal entries are not always repeated. Bridge positions count the residues as written; N and C are the ends. Square brackets hold non-standard residues; d marks the D form. Peptide text beside a SMILES is read from it. * marks the point of attachment. Nonanoyl = CCCCCCCCC(=O)*; Dab = NCC[C@H](N)C(=O)O

Key:
E. coli (ATCC 25922) [1] = experiment: Reduction of viability by plate count, E. coli; assay type: cell-based, Escherichia coli; conditions: 5 μg/mL
Procedure: (§1) An overnight culture (12 to 16 h) of S. aureus (ATCC 29213) or E. coli (ATCC 25922) in Tryptic Soy Broth (TSB) was grown at 37 °C and 400 μL were added in 50 mL of tryptone water (∼10^7 bacteria/mL). The bacterial suspension was split into aliquots of 4-5 mL and treated with the peptides (at the MIC) for different incubation times at room temperature. Cells were collected by centrifugation (10000 rpm, 20 min) and resuspended in 1 mL of filtered Ringer’s solution.

E. coli (ATCC 25922) [2] = experiment: Flow cytometry (PI membrane permeability, BOX membrane potential), E. coli; assay type: cell-based, Escherichia coli; conditions: 5 μg/mL
Procedure: The mechanism of action at the membrane level of our best candidate was studied using flow cytometry. To assess membrane permeability, a propidium iodide (PI) probe was used[43][44]. The fluorescence conferred by this probe is generally associated with cells that have lost their membrane integrity. The effect on membrane potential was evaluated with bis-(1,3-dibutylbarbituric acid) trimethine oxonol (BOX). Membrane depolarization leads to the incorporation of this anionic dye into the cell where it binds to lipid-rich intracellular compounds, resulting in an increase in fluorescence.
as §1
A stock solution of propidium iodide (PI, 1 mg/mL, Molecular Probes) and bis-(1,3-dibutylbarbituric acid) trimethine oxonol (BOX, 250 μM, Sigma Aldrich) was prepared in distilled water. Portions (10 μL and 2 μL, respectively) were added to aliquots of cells (100 μL of each sample in 1 mL of Ringer’s solution) to give a final concentration of 10 μg/mL of PI and 0.5 μM for BOX.
Flow cytometric measurements were performed on a Gallios multi-colour flow cytometer instrument (Beckman Coulter, Inc, Fullerton, CA) set up with the 3-lasers 10 colors standard configuration. Excitation was done using a blue (488 nm) laser. Forward scatter (FS), side scatter (SS), green fluorescence (525/40 nm) from BOX and red fluorescence (620/30 nm) emitted by PI were collected using logarithmic scales. FS was used as the discriminating parameter. The single-cell bacterial population was selected on a forward-side scatter plot. Fluorescence was presented in a dot plot of BOX vs. PI. Three regions were defined on this graph according to the controls: depolarized, permeabilized and non-affected cells. Control cells (non-stained and single stained populations) were used to define these regions. 25,000 cells defined according to their scatter parameters were counted in each sample.

[3] = tested on: human dermic fibroblasts (hDF); experiment: In vitro cytotoxicity (WST-1 cell viability), hDF; assay type: cell-based; conditions: for IC50 hDF Exp1: Supplementary Table S2, experiment 1; for IC50 hDF Exp2: Supplementary Table S2, experiment 2; for IC50 hDF: cytotoxicity, WST-1
Procedure: (§2) Cell viability assays were performed using the tetrazolium dye WST1 (similar to MTT) on human dermal fibroblasts (3T3 hDF), MDCK (renal model, Madin-Darby canine kidney cells) and PC12 (NGF treated; neuronal model) cell lines and followed standard protocols. Briefly, cells were seeded into 96-well plates, after incubation for 24 h, the medium was replaced with fresh cell culture medium containing the products (range 0-1.2 mg/mL). Negative and positive controls consisted of plates in the absence of the test compound and plates with sodium dodecyl sulfate (0.02% w/v), respectively. Cell viability was assayed with the tetrazolium salt (4-[3-(4- iodophenyl)-2-(4-nitrophenyl)-2H-5-tetrazolio]-1,3-benzene disulfonate) (WST-1). The relative WST-1 absorbance was recorded at 450 nm.
(§3) The products at concentrations ranging from 0 to 1.2 mg/mL were tested (triplicate) and in two independent experiments. The statistical analysis of the data was performed by using non-linear regression (curve-fit) and the model used agreed with the four parameter logistic model (4PL), also called the Hill-Slope model (sigmoid model), with the following equation: […]
(§4) where y is the percent activity and x is the corresponding concentration. The quantities determined where the point estimate IC50 (Half maximal (50%) inhibitory concentration (IC) of a substance, see Table II), the corresponding 95% confidence interval and R^2 (measures the goodness of fit) are shown in the Supplementary Table S2.

P. aeruginosa ATTC 9027 = assay type: cell-based, Pseudomonas aeruginosa; conditions: ATTC 9027
Procedure: (§5) MICs were measured after 18–20 h of incubation in sterile 96-well plates (Corning Costar 3598 microtiter plates) in Mueller Hinton Broth (MHB) culture medium, (Difco, USA), according to well known in vitro protocols. Bacterial strains in Table 1 were: P. aeruginosa ATTC 9027, E. coli ATTC 8739, S. aureus ATTC 6538, and E. faecalis ATTC 29212. MICs shown in table 4 were performed by Mary Conrad at Cubist Pharmaceuticals (Lexington, MA) in non-binding surface plates.

[4] = tested on: Madine-Darby canine kidney cells (MDCK, renal model); experiment: In vitro cytotoxicity (WST-1 cell viability), MDCK; assay type: cell-based; conditions: for IC50 MDCK Exp1: Supplementary Table S2, experiment 1; for IC50 MDCK Exp2: Supplementary Table S2, experiment 2; for IC50 MDCK: cytotoxicity, WST-1
Procedure: as §2, §3, §4

[5] = tested on: PC12 (treated with NGF, neuronal model); experiment: In vitro cytotoxicity (WST-1 cell viability), PC12; assay type: cell-based; conditions: WST-1, NGF treated
Procedure: as §2, §3, §4

S. aureus ATTC 6538 = experiment: microbe, parasite or virus in culture; assay type: cell-based, Staphylococcus aureus; conditions: ATTC 6538
Procedure: as §5

E. coli ATTC 8739 = assay type: cell-based, Escherichia coli; conditions: ATTC 8739
Procedure: as §5

S. aureus = experiment: microbe, parasite or virus in culture; assay type: cell-based, Staphylococcus aureus
Procedure: as §5

E. faecalis ATTC 29212 = experiment: microbe, parasite or virus in culture; assay type: cell-based, Enterococcus faecalis; conditions: ATTC 29212
Procedure: Lipopeptide 39 was chosen for this, as it is known that long fatty acids tend to favor activity against Gram-positive bacteria in polymyxin analogs. […] In summary, new broad-spectrum antimicrobial lipopeptides were achieved.
as §5

| Compound | IC50 hDF Exp1 [3] | IC50 hDF Exp2 [3] | IC50 hDF [3] | MIC P. aeruginosa (P. aeruginosa ATTC 9027) | IC50 MDCK Exp1 [4] | IC50 MDCK Exp2 [4] | IC50 MDCK [4] | IC50 PC12 [5] | MIC S. aureus (S. aureus ATTC 6538) | MIC E. coli (E. coli ATTC 8739) | further results |
| --- | --- | --- | --- | --- | --- | --- | --- | --- | --- | --- | --- |
| PxB nonapeptide [PxBN] | – | – | – | – | – | – | – | – | – | – | % viability reduction (E. coli (ATCC 25922) [1]; 30 min): 0%; % viability reduction (E. coli (ATCC 25922) [1]; 60 min): 5%; % of stained cells BOX (E. coli (ATCC 25922) [2]; 30 min): 5%; % of stained cells PI (E. coli (ATCC 25922) [2]; 30 min): 10%; % of stained cells BOX (E. coli (ATCC 25922) [2]; 60 min): 3%-6% and 6%; % of stained cells PI (E. coli (ATCC 25922) [2]; 60 min): 3%-6% and 3% |
| CCCCCCCCC(=O)N[C@@H](CCCNC(=N)N)C(=O)N[C@H](C(=O)N[C@@H](CCCNC(=N)N)C(=O)N[C@H]1CSSC[C@@H](C(N)=O)NC(=O)[C@H](CCCNC(=N)N)NC(=O)[C@H](CCCNC(=N)N)NC(=O)[C@H](CC(C)C)NC(=O)[C@@H](Cc2ccccc2)NC(=O)[C@H](CCCNC(=N)N)NC1=O)[C@@H](C)O [Analog 12] (Nonanoyl-RTRCR[dF]LRRC-NH2; disulfide 4-10) | 147 mg/L (≈ 97.7 µM) | 181 mg/L (≈ 120 µM) | 164 mg/L (≈ 109 µM) | 16 to 32 mg/L | 233 mg/L (≈ 155 µM) | 147 mg/L (≈ 97.7 µM) | 190 mg/L (≈ 126 µM) | 225 mg/L (≈ 150 µM) | 8 mg/L (≈ 5.32 µM) | 8 to 16 mg/L | – |
| CCCCCCCCC(=O)N[C@@H](CCCNC(=N)N)C(=O)N[C@H](C(=O)N[C@@H](CCN)C(=O)N[C@H]1CSSC[C@@H](C(N)=O)NC(=O)[C@H](CCN)NC(=O)[C@H](CCCNC(=N)N)NC(=O)[C@H](CC(C)C)NC(=O)[C@@H](Cc2ccccc2)NC(=O)[C@H](CCN)NC1=O)[C@@H](C)O [Analog 5, nonanoyl-Arg-Thr-Dab-Cys-Dab-Phe-Leu-Arg-Dab-Cys] (Nonanoyl-RT[Dab]C[Dab][dF]LR[Dab]C-NH2; disulfide 4-10) | 555 mg/L (≈ 416 µM) | 513 mg/L (≈ 384 µM) | 534 mg/L (≈ 400 µM) | 16 mg/L (≈ 12 µM) | 541 mg/L (≈ 405 µM) | 554 mg/L (≈ 415 µM) | 548 mg/L (≈ 410 µM) | 629 mg/L (≈ 471 µM) | – | 8 mg/L (≈ 5.99 µM) | – |
| CCCCCCCCCC(=O)N[C@@H](Cc1c[nH]c2ccccc12)C(=O)N[C@H](CC(N)=O)C(=O)N[C@@H](CC(=O)O)C(=O)N[C@@H]1C(=O)NCC(=O)N[C@@H](CCCN)C(=O)N[C@@H](CC(=O)O)C(=O)N[C@H](C)C(=O)N[C@@H](CC(=O)O)C(=O)NCC(=O)N[C@H](CO)C(=O)N[C@@H]([C@H](C)CC(=O)O)C(=O)N[C@@H](CC(=O)c2ccccc2N)C(=O)O[C@@H]1C [Daptomycin] | – | – | – | – | – | – | – | – | 1 mg/L (≈ 0.617 µM) | – | MIC S. aureus DR, MR SAU.1616 (S. aureus): 16 mg/L (≈ 9.87 µM); MIC S. aureus DR, MS SAU.278 (S. aureus): 8 mg/L (≈ 4.94 µM); MIC S. aureus MR ATTC 43300 (S. aureus): 0.5 mg/L (≈ 0.309 µM); MIC S. aureus MR SAU.1118 (S. aureus): 0.5 mg/L (≈ 0.309 µM); MIC S. aureus MS ATTC 29213 (S. aureus): 0.5 mg/L (≈ 0.309 µM); MIC E. faecalis Wild type ATTC 29212 (E. faecalis ATTC 29212): 2 to 4 mg/L |
| CCCCCCCCC(=O)N[C@@H](CCCNC(=N)N)C(=O)N[C@H](C(=O)N[C@@H](CCCNC(=N)N)C(=O)N[C@H]1CSSC[C@@H](C(N)=O)NC(=O)[C@H](CCN)NC(=O)[C@H](CCCNC(=N)N)NC(=O)[C@H](CC(C)C)NC(=O)[C@@H](Cc2ccccc2)NC(=O)[C@H](CCN)NC1=O)[C@@H](C)O [Analog 8, nonanoyl-Arg-Thr-Arg-Cys-Dab-Phe-Leu-Arg-Dab-Cys] (Nonanoyl-RTRC[Dab][dF]LR[Dab]C-NH2; disulfide 4-10) | 421 mg/L (≈ 302 µM) | 502 mg/L (≈ 361 µM) | 461 mg/L (≈ 331 µM) | 8 mg/L (≈ 5.75 µM) | 417 mg/L (≈ 299 µM) | 528 mg/L (≈ 379 µM) | 472 mg/L (≈ 339 µM) | 595 mg/L (≈ 428 µM) | – | 4 mg/L (≈ 2.87 µM) | – |
